Measured values published in patent US20080045535A1, “Prokineticin 2 receptor antagonists” (priority 2005, published 2008).
Several values for one entry are separate records, joined by “and”; a condition that tells them apart may be missing. Equal values may be shown once.

Target: T1, HEK 293 GPR73 (prokineticin 1 receptor) expressing cells (Homo sapiens, UniProt Q8TCW9)
T1 construct: expressed in transfected cells; host or cells: HEK 293
Assay: PK1 functional assay: screening for PK1 antagonists on the FLIPR (calcium fluorescence)
Type: cell-based
Settings: HEK 293 GPR73 cells; for inhibition at 10 µM: HEK293, compound at 10 μM, read-out: Ca^2+ Mobilization % Inh @10 μM; for inhibition at 10 µM / Ca^2+ Mobilization % Inh @10 μM: multiple values = repeat tests; for IC50: PK1 ligand at EC50, multiple values = repeat tests, read-out: Ca^2+ Mobilization IC50; for Ca^2+ Mobilization % Inh @10 μM: compound at 10 μM
Protocol: At a time of 24 h prior to running the assay, in cell culture media (DMEM containing high Glucose and L-glutamine, 10% FBS, 1% Pen/Streptomycin, 1% Sodium Pyruvate, 20 mM HEPES, Zeocin 200 mg/L), 100 μL of 1.3*10^6/ml HEK 293 GPR73 (prokineticin 1 receptor) expressing cells were plated in a 96 well poly-d-lysine coated plate (Costar), and incubated at 37 C and 5% CO2. On the day in which the assay was run, the media was removed and 200 μL of 5× Calcium Plus Dye (Molecular Devices) which was previously resuspended with 200 mL of assay buffer [HBSS w/Ca^2+ and Mg^2+ w/o phenol red, 20 mM HEPES, 0.1% BSA, 10 mL probenecid (710 mg probenecid in 5 mL of 1N NaOH, to which was then added 5 mL HBSS containing 20 mM HEPES)] was added to each well of the 96-well plate. The plate was incubated at 37 C and 5% CO2 for 30 min in dark. The plate was removed and allowed to reach RT for 15 min in the dark. The assay was then run on the FLIPR. […] Baseline is described as the amount of relative fluorescence read when buffer alone is added to cells. Baseline was subtracted from all wells. Percent of control was calculated as follows:
(Baseline subtracted well value is divided by baseline subtracted max value)*100.
Percent inhibition is 100 minus the percent of control value.
IC50 values were calculated using GraphPad Prism.
Table 2 includes data generated from the PK1 functional assay described in Example 2.

T1 sequence (Q8TCW9 whole entry): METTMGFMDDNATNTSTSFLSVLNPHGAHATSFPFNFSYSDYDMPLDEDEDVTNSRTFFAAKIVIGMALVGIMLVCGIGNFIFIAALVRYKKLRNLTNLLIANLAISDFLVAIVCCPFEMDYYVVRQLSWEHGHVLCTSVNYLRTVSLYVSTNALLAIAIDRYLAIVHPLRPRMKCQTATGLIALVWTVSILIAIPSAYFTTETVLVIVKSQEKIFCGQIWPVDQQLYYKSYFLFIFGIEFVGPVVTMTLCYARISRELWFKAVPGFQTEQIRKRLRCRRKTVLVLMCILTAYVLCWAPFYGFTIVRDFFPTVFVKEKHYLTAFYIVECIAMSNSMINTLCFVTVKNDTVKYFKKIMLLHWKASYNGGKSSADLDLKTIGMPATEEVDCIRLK

| inhibition at 10 µM [%] | IC50 | Ca^2+ Mobilization % Inh @10 μM (10 µM) | Ca^2+ Mobilization % Inh @10 μM [%] | SMILES |
| --- | --- | --- | --- | --- |
| 99 | 23 nM | – | – | COc1ccc(Cn2c(NCCNC(=N)Nc3ccc(Br)cc3)nc(=O)n(Cc3ccc(F)cc3)c2=O)cc1 [Cpd 103] |
| – | 11 nM | 99% and 102% | – | COc1ccc(Cn2c(NCCN(C(=N)N)c3ccccn3)nc(=O)n(Cc3ccc(F)cc3)c2=O)cc1 [Cpd 104, N-{2-[5-(4-Fluoro-benzyl)-1-(4-methoxy-benzyl)-4,6-dioxo-1,4,5,6-tetrahydro-[1,3,5]triazin-2-ylamino]-ethyl}-N-pyridin-2-yl-guanidine] |
| – | 89 nM | – | 100 | COc1ccc(Cn2c(NCCNC(=N)NCCc3ccccn3)nc(=O)n(Cc3ccc(F)cc3)c2=O)cc1 [Cpd 105] |
| 89 | 508 nM | – | – | CCOC(=O)c1ccc(NC(=N)NCCNc2nc(=O)n(Cc3ccc(F)cc3)c(=O)n2Cc2ccc(OC)cc2)cc1 [Cpd 106] |
| 101 | 12 nM | – | – | COc1ccc(Cn2c(NCCNC(=N)Nc3ccc(F)cc3F)nc(=O)n(Cc3ccc(F)cc3)c2=O)cc1 [Cpd 107] |
| 89 | 369 nM | – | – | CCCCCCCCCCNC(=N)NCCNc1nc(=O)n(Cc2ccc(F)cc2)c(=O)n1Cc1ccc(OC)cc1 [Cpd 108] |
| – | 129 nM | – | 99 | COc1ccc(Cn2c(NCCNC(=N)N)nc(=O)n(Cc3ccc(OC(C)(C)C)cc3)c2=O)cc1 [Cpd 109] |
| 81 | 1160 nM | – | – | COc1ccc(Cn2c(NCCNC(=N)N)nc(=O)n(Cc3ccc(O)cc3)c2=O)cc1 [Cpd 110, N-{2-[5-(4-Hydroxy-benzyl)-1-(4-methoxy-benzyl)-4,6-dioxo-1,4,5,6-tetrahydro-[1,3,5]triazin-2-ylamino]-ethyl}-guanidine] |
| 100 | 154 nM | – | – | COc1ccc(Cn2c(NCCNC(=N)N)nc(=O)n(Cc3csc(Cl)n3)c2=O)cc1 [Cpd 111] |
| 101 | 26 nM | – | – | COc1ccc(Cn2c(NCCNC(=N)N)nc(=O)n(Cc3cc4ccccc4o3)c2=O)cc1 [Cpd 112] |
| 101 | 11 nM and 24 nM and 46 nM and 76 nM | 100% and 102% | – | COc1ccc(Cn2c(NCCN(C)C(=N)N)nc(=O)n(Cc3ccc(Cl)c(Cl)c3)c2=O)cc1 [Cpd 113] |
| 99 | 41 nM | – | – | COc1ccc(Cn2c(NCCNC(=N)NCC(F)(F)F)nc(=O)n(Cc3ccc(F)cc3)c2=O)cc1 [Cpd 114] |
| 99 | 47 nM | – | – | COCCCNC(=N)NCCNc1nc(=O)n(Cc2ccc(F)cc2)c(=O)n1Cc1ccc(OC)cc1 [Cpd 115] |
| 99 | 57 nM | – | – | COc1ccc(Cn2c(NCCNC(=N)N3CCCCC3)nc(=O)n(Cc3ccc(F)cc3)c2=O)cc1 [Cpd 116] |
| 79 | 84 nM | – | – | COc1ccc(Cn2c(NCCNC(=N)N(C)c3ccccc3)nc(=O)n(Cc3ccc(F)cc3)c2=O)cc1 [Cpd 117] |
| – | 6 nM | 98% and 102% | – | COc1ccc(Cn2c(NCCN(C(=N)N)c3ccccc3F)nc(=O)n(Cc3ccc(F)cc3)c2=O)cc1 [Cpd 118, N-{2-[5-(4-Fluoro-benzyl)-1-(4-methoxy-benzyl)-4,6-dioxo-1,4,5,6-tetrahydro-[1,3,5]triazin-2-ylamino]-ethyl}-N-(2-fluoro-phenyl)-guanidine] |
| 102 | 6 nM and 12 nM | 99% | – | COc1ccc(Cn2c(NCCNC(=N)Nc3ccc(F)cc3)nc(=O)n(Cc3ccc(F)cc3)c2=O)cc1 [Cpd 119, N-{2-[5-(4-Fluoro-benzyl)-1-(4-methoxy-benzyl)-4,6-dioxo-1,4,5,6-tetrahydro-[1,3,5]triazin-2-ylamino]-ethyl}-N′-(4-fluoro-phenyl)-guanidine] |
| 100 | 9 nM and 15 nM | 102% | – | COc1ccc(Cn2c(NCCNC(=N)Nc3ccc(C)cc3)nc(=O)n(Cc3ccc(F)cc3)c2=O)cc1 [Cpd 120] |
| 101 | 20 nM and 33 nM | 98% | – | COc1ccc(Cn2c(NCCNC(=N)NC(C)(C)C)nc(=O)n(Cc3ccc(F)cc3)c2=O)cc1 [Cpd 121] |
| 78 | 1080 nM | – | – | N=C(N)NCCNc1nc(=O)n(Cc2ccc(Cl)cc2)c(=O)n1Cc1ccc(N)cc1 [Cpd 122, N-{2-[1-(4-Amino-benzyl)-5-(4-chloro-benzyl)-4,6-dioxo-1,4,5,6-tetrahydro-[1,3,5]triazin-2-ylamino]-ethyl}-guanidine] |
| 34 | > 10000 nM | – | – | COc1ccc(Cn2c(NCCNC(=N)N)nc(=O)n(CC(C)(C)C)c2=O)cc1 [Cpd 123] |
| 74 | 1560 nM | – | – | COc1ccc(Cn2c(NCCNC(=N)N)nc(=O)n(CC3CCCC3)c2=O)cc1 [Cpd 124] |
| 83 | 487 nM | – | – | COc1ccc(Cn2c(NCCNC(=N)N)nc(=O)n(Cc3ccc(N)cc3)c2=O)cc1 [Cpd 125, N-{2-[5-(4-Amino-benzyl)-1-(4-methoxy-benzyl)-4,6-dioxo-1,4,5,6-tetrahydro-[1,3,5]triazin-2-ylamino]-ethyl}-guanidine] |
| 95 | 115 nM | – | – | COc1ccc(Cn2c(NCCNC(=N)NC3C4CC5CC(C4)CC3C5)nc(=O)n(Cc3ccc(F)cc3)c2=O)cc1 (centres unmarked) [Cpd 126] |

Second part, the molecule before the results:

| SMILES | inhibition at 10 µM [%] | IC50 | Ca^2+ Mobilization % Inh @10 μM (10 µM) | Ca^2+ Mobilization % Inh @10 μM [%] |
| --- | --- | --- | --- | --- |
| COc1ccc(Cn2c(=O)nc(NCCNC(=N)N)n(CC3CCC(OC)CC3)c2=O)cc1 (centres unmarked) [Cpd 86] | 61 | 3260 nM | – | – |
| N=C(N)NCCNc1nc(=O)n(Cc2ccc(F)cc2)c(=O)n1Cc1ccc([N+](=O)[O-])cc1 [Cpd 87] | 38 | > 10000 nM | – | – |
| COc1ccc(Cn2c(NCCNC(=N)NCCN3CCOCC3)nc(=O)n(Cc3ccc(F)cc3)c2=O)cc1 [Cpd 88] | 59 | 4740 nM | – | – |
| COc1ccc(Cn2c(NCCNC(=N)NCCCN3CCOCC3)nc(=O)n(Cc3ccc(F)cc3)c2=O)cc1 [Cpd 89] | 46 | 9070 nM | – | – |
| COc1ccc(Cn2c(NCCN(C(=N)N)c3ccc(C#N)cc3)nc(=O)n(Cc3ccc(F)cc3)c2=O)cc1 [Cpd 90, N-(4-Cyano-phenyl)-N-{2-[5-(4-fluoro-benzyl)-1-(4-methoxy-benzyl)-4,6-dioxo-1,4,5,6-tetrahydro-[1,3,5]triazin-2-ylamino]-ethyl}-guanidine] | – | 31 nM and 43 nM | 100% and 101% | – |
| COc1ccc(Cn2c(NCCNC(=N)Nc3ccc([N+](=O)[O-])cc3)nc(=O)n(Cc3ccc(F)cc3)c2=O)cc1 [Cpd 91] | 101 | 54 nM | – | – |
| COc1ccc(Cn2c(NCCNC(=N)Nc3ccc4c(c3)OCO4)nc(=O)n(Cc3ccc(F)cc3)c2=O)cc1 [Cpd 92] | 97 | 40 nM | – | – |
| COc1ccc(Cn2c(NCCNC(=N)NN)nc(=O)n(Cc3ccc(F)cc3)c2=O)cc1 [Cpd 93, N-{2-[5-(4-Fluoro-benzyl)-1-(4-methoxy-benzyl)-4,6-dioxo-1,4,5,6-tetrahydro-[1,3,5]triazin-2-ylamino]-ethyl}-AN-amino-guanidine] | 92 | 227 nM | – | – |
| COc1ccc(Cn2c(NCCNC(=N)N)nc(=O)n(Cc3cccc([N+](=O)[O-])c3)c2=O)cc1 [Cpd 94] | 60 | 4800 nM | – | – |
| COc1ccc(Cn2c(NCCNC(=N)N)nc(=O)n(Cc3ccc([N+](=O)[O-])cc3)c2=O)cc1 [Cpd 95, N-{2-[1-(4-Methoxy-benzyl)-5-(4-nitro-benzyl)-4,6-dioxo-1,4,5,6-tetrahydro-[1,3,5]triazin-2-ylamino]-ethyl}-guanidine] | 96 | 84 nM | – | – |
| COc1ccc(Cn2c(NCCNC(=N)N)nc(=O)n(Cc3cccc(N)c3)c2=O)cc1 [Cpd 96] | 43 | > 10000 nM | – | – |
| COc1ccc(Cn2c(NCCNC(=N)N)nc(=O)n(Cc3ccc(C#N)cc3)c2=O)cc1 [Cpd 97] | 86 | 318 nM | – | – |
| COc1ccc(Cn2c(NCCNC(=N)N)nc(=O)n(Cc3cccc(C#N)c3)c2=O)cc1 [Cpd 98] | 34 | > 10000 nM | – | – |
| [H]/N=C(\N)NCCNc1nc(=O)n(Cc2ccc(C(=O)OC)cc2)c(=O)n1Cc1ccc(OC)cc1 [Cpd 99] | 73 | 794 nM | – | – |
| COC(=O)c1cccc(Cn2c(=O)nc(NCCNC(=N)N)n(Cc3ccc(OC)cc3)c2=O)c1 [Cpd 100] | 48 | 8820 nM | – | – |
| COc1ccc(Cn2c(NCCNC(=N)N)nc(=O)n(Cc3ccc(C(=O)O)cc3)c2=O)cc1 [Cpd 101, 4-[4-(2-Guanidino-ethylamino)-3-(4-methoxy-benzyl)-2,6-dioxo-3,6-dihydro-2H-[1,3,5]triazin-1-ylmethyl]-benzoic acid] | 33 | > 10000 nM | – | – |
| COc1ccc(Cn2c(NCC(C)(C)NC(=N)N)nc(=O)n(Cc3ccc(Cl)c(Cl)c3)c2=O)cc1 [Cpd 102] | 68 | 3490 nM | – | – |
